Experimental data from patent publication US20090023687A1, “Method for Controlling Phytopathogenic Organisms” (SYNGENTA CROP PROTECTION, INC., priority 2005, published 2009).

What was measured:
Format in all cases: in vivo
Phakopsora pachyrhizi [1] = assay: Application on whole plants: leaf disc test with Phakopsora pachyrhizi on glyphosate sensitive soybean (Example 5)
Description: (§1) A synergistic effect exists whenever the action of an active ingredient combination is greater than the action expected from the effect of the individual components.
(§2) The action to be expected (E) for a given active ingredient combination obeys the so-called COLBY formula and can be calculated as follows (COLBY, S. R. “Calculating synergistic and antagonistic responses of herbicide combination”. Weeds, Vol. 15, pages 20-22; 1967):
(§3) ppm=milligrams of active ingredient (=a.i.) per litre of spray mixture X=% action by active ingredient I using p ppm of active ingredient Y=% action by active ingredient II using q ppm of active ingredient.
(§4) According to Colby, the expected (additive) action of active ingredients I+II using p+q ppm of active ingredient is
(§5) If the action actually observed (O) is greater than the expected action (E), then the action of the combination is superadditive, i.e. there is a synergistic effect.
(§6) A series of leaf disc tests were conducted to show the effects of tank mixtures of glyphosate and pesticides or plant activators on Asian soybean rust. The soybean variety tested was brand Williams82 glyphosate sensitive soybean. The leaf source for the testing was the first trifoliate leaf. Six (6) repetitions for each formulation and at each rate were conducted. Treatment of whole plants with the recited active ingredients was conducted 4 weeks after planting. After application, leaf disks were cut and inoculated with Phakopsora pachyrhizi (Asian soybean rust (ASR)) one (1) day after treatment. Evaluation of the leaf was conducted ten (10) days after inoculation and the mean percent infestation of the six repetitions is reported in Tables 12-14.
As glyphosate source Touchdown® HiTech or Zapp® QI was used. The fungicides were used as commercial formulations: Cantus® WG50 fungicide comprising boscalid (BASF AG), Quadris® SC250 fungicide and Bion® WG50 plant activator comprising acibenzolar-S-methyl. The rates of the active ingredients used in the tests are set in Tables 12-14 as g active ingredient (a.i.)/hectare (ha). The spray volume was 200 l/ha.

Phakopsora pachyrhizi [2] = assay: Application on whole plants: leaf disc test with Phakopsora pachyrhizi on glyphosate tolerant soybean (Example 6)
Description: as §1, §2, §3, §4, §5
as §6, with “Leaf” for “A series of leaf”, “S40-R9” for “Williams82”, “tolerant” for “sensitive”, “[…]” for “of whole plants with the recited active ingredients was conducted 4 weeks after planting. After”, “15-17.” for “12-14.”
As glyphosate source Touchdown® HiTech or Zapp® QI was used. The fungicides were used as commercial formulations: Bravo® SC500 fungicide comprising chlorothalonil (Syngenta Corp.), Score® EC250 fungicide comprising difenaconazole (Syngenta Corp.) and Mancozeb 80WP fungicide comprising mancozeb. The rates of the active ingredients used in the tests are set in Tables 15-17 as g active ingredient (a.i.)/hectare (ha). The spray volume was 200 l/ha.

Puccinia recondita = assay: Greenhouse trial with Puccinia recondita on glyphosate sensitive wheat (Example 3); settings: read-out: % activity observed
Description: as §1, §2, §3, §4, §5
Greenhouse tests were conducted to show the effects of tank mixtures of glyphosate and the ortho-substituted phenyl-amide (OPA) fungicides represented by structures F-10, F-5 and F-9 on cereal rust Puccinia recondita. The wheat variety tested was brand Kanzler glyphosate sensitive wheat. Three (3) repetitions for each formulation and at each rate were conducted. Treatment of the plants with the recited active ingredients was conducted preventatively 16 days after planting. The leaves were inoculated with Puccinia recondita one (1) day after treatment. Evaluation of the leaf was conducted […] after inoculation and the mean percent infestation of the three repetitions is reported in Tables 5-7.
The glyphosate source was Zapp® QI herbicide containing the potassium salt of glyphosate as well as an adjuvant system. The compound OPA F-5 used was a compound of formula F-5, wherein the ratio of racemic compounds of formula F-3 (syn) to racemic compounds of formula F-4 (anti) was 9:1. The compound OPA F-9 used was a compound of formula F-9, wherein the ratio of racemic compounds of formula F-7 (trans) to racemic compounds of formula F-8 (cis) was around 100:1. The fungicides used were EC 100 formulations of OPA F-10, OPA F-5 and OPA F-9 which are emulsion concentrates containing 100 ga.i./L. The rates of the active ingredients used in the tests are set in Tables 5-7 as mg active ingredient (a.i.)/L.

Phakopsora pachyrhizi [3] = assay: Leaf disc test with Phakopsora pachyrhizi on glyphosate resistant soybean (Example 1)
Description: as §1, §2, §3, §4, §5
A series of leaf disc tests were conducted to show the effects of tank mixtures of glyphosate and fungicides on Asian soybean rust. The soybean variety tested was NK Brand S40-R9 glyphosate resistant soybean. The leaf source for the testing was the first trifoliate leaf. Six (6) repetitions for each formulation and at each rate were conducted. Treatment of the leaf with the recited active ingredients was conducted 29 days after planting. The leaves were inoculated with Phakopsora pachyrhizi (Asian soybean rust (ASR)) one (1) day after treatment. Evaluation of the leaf was conducted ten (10) days after inoculation and the mean percent infestation of the six trials is reported in Table 1.
The glyphosate source was Zapp® QI herbicide (Syngenta Corp.), containing the potassium salt of glyphosate as well as an adjuvant system. The fungicide used was Priori® Xtra (Syngenta Corp.), which is a suspension concentrate containing 200 g/L of azoxystrobin (AZ) and 80 g/L of cyproconazole (CCZ). The rates of the active ingredients used in the tests are set forth in the Table as mg active ingredient (a.i.)/L.

[4] = Glyphosate TD HiTech SL523 200 g a.i./ha
[5] = Glyphosate TD HiTech SL523 500 g a.i./ha
[6] = Glyphosate TD HiTech SL523 600 g a.i./ha
[7] = Glyphosate TD HiTech SL523 500 g a.i./ha, Tables 15, 17 (check 60)
[8] = Glyphosate TD HiTech SL523 1500 g a.i./ha, Table 16 (check 49)
[9] = Glyphosate TD HiTech SL523 1500 g a.i./ha, Tables 15, 17 (check 60)

O=C(O)CNCP(=O)(O)O [Glyphosate, glyphosate]
Activity observed % (Phakopsora pachyrhizi [1]; [4]): 7%
Leaf attack % (Phakopsora pachyrhizi [1]; [4]): 58%
Activity observed % (Phakopsora pachyrhizi [1]; [5]): 10%
Leaf attack % (Phakopsora pachyrhizi [1]; [5]): 56%
Activity observed % (Phakopsora pachyrhizi [1]; [6]): 19%
Leaf attack % (Phakopsora pachyrhizi [1]; [6]): 50%
Activity observed % (Phakopsora pachyrhizi [2]; [7]): 0%
Leaf attack % (Phakopsora pachyrhizi [2]; [7]): 68%
Activity observed % (Phakopsora pachyrhizi [2]; [8]): 44%
Leaf attack % (Phakopsora pachyrhizi [2]; [8]): 28%
Activity observed % (Phakopsora pachyrhizi [2]; [9]): 17%
Leaf attack % (Phakopsora pachyrhizi [2]; [9]): 50%
inhibition at 66 µg/mL (Puccinia recondita; Glyphosate 66 mg a.i./L (Zapp QI)): 0%
inhibition at 200 µg/mL (Puccinia recondita; Glyphosate 200 mg a.i./L (Zapp QI)): 42%
% Leaf attack (Phakopsora pachyrhizi [3]; Glyphosate 0.1 mg a.i./L (Zapp QI)): 90%
% Leaf attack (Phakopsora pachyrhizi [3]; Glyphosate 0.39 mg a.i./L (Zapp QI)): 90%
% Leaf attack (Phakopsora pachyrhizi [3]; Glyphosate 1.56 mg a.i./L (Zapp QI)): 100%
% Leaf attack (Phakopsora pachyrhizi [3]; Glyphosate 6.25 mg a.i./L (Zapp QI)): 100%
% Leaf attack (Phakopsora pachyrhizi [3]; Glyphosate 25 mg a.i./L (Zapp QI)): 100%
% Leaf attack (Phakopsora pachyrhizi [3]; Glyphosate 100 mg a.i./L (Zapp QI)): 100%
inhibition at 0.1 µg/mL (Phakopsora pachyrhizi [3]; Phakopsora pachyrhizi, foliar, Glyphosate 0.1 mg a.i./L (Zapp QI), read-out: % Activity observed): 6%
inhibition at 0.39 µg/mL (Phakopsora pachyrhizi [3]; Phakopsora pachyrhizi, foliar, Glyphosate 0.39 mg a.i./L (Zapp QI), read-out: % Activity observed): 6%
inhibition at 1.56 µg/mL (Phakopsora pachyrhizi [3]; Phakopsora pachyrhizi, foliar, Glyphosate 1.56 mg a.i./L (Zapp QI), read-out: % Activity observed): 0%
inhibition at 6.25 µg/mL (Phakopsora pachyrhizi [3]; Phakopsora pachyrhizi, foliar, Glyphosate 6.25 mg a.i./L (Zapp QI), read-out: % Activity observed): 0%
inhibition at 25 µg/mL (Phakopsora pachyrhizi [3]; Phakopsora pachyrhizi, foliar, Glyphosate 25 mg a.i./L (Zapp QI), read-out: % Activity observed): 0%
inhibition at 100 µg/mL (Phakopsora pachyrhizi [3]; Phakopsora pachyrhizi, foliar, Glyphosate 100 mg a.i./L (Zapp QI), read-out: % Activity observed): 0%
